Laboratory results taken from patent publication US12435061B2 (priority 2020, dated 2025).
Values after ≈ are worked out from the molar mass of the structure shown. Read-outs that look alike come from different tables or passages of the source.

What was measured:
[1] = molecular target: T1, hTRPV3 (Homo sapiens (Human), UniProt Q8NET8); assay: Semi-auto patch clamp recording in nHEK cells (WT or TRPV3-mu transfected); assay type: cell-based
Protocol: Compounds were tested at room temperature using the whole-cell patch clamp technique with a HEKA EPC 10 usb patch-clamp amplifier (HEKA Elektronik, Germany). Output signals from the amplifier were digitized and recorded with PatchMaster (v2x90.5 HEKA Elektronik, Germany). For quality control, the minimum seal resistance was set at 100 MΩ, and the outward current was stabilized with at least 1 nA of rectifying current at +80 mV while the inward current was stabilized with at least 300 pA of rectifying current at −80 mV.
NPC-1 Chips (Nanion, Germany) were used to trap a single cell. For both WT or transfected cells, chips of the categories 2-3 MOhm and 3-5 MOhm were used. Chips are disposable and each recording required a new chip. 5 μl of internal solution was applied in the inner pore of the chip, then it was screwed on top of the inner electrode. The upper unit of the patch lamp device was assembled over the chip, and 15 μl external buffer were added between the chip pore and the external electrode.
Basal nHEK cells at Passage 2 or 3 and at the density of 70-90% confluency were used for patch clamp or transfection. For patch-clamp, cells were suspended in TrypLE enzyme for 5 min in 37° C., and then harvested using KBM-Gold media. Cells were then centrifuged for 5 min at 110 g RT. Supernatant was then removed, and cells were re-suspended in the KBM-Gold media and maintained at RT until patch-clamp. After patch clamp system was initialized, and once cell was capture on the chip, media was washed together with free cells, and replaced by external buffer. For TRPV3-mu transfected cells, cells were maintained in KBM-Gold media containing 3 uM of the tested antagonist.
nHEK cells were transfected according to SOP KP-Lab-001.For patch clamp, cells were seeded in 12 well plate and harvested 24 hours after transfection according to the SOP section 2.8.2 “Cell preparation for patch clamp”.
For WT nHEK cells, the “intermediate protocol” in the semi-automatic Port-a-Patch device software was selected based on the parameters: initial sealing, measured by resistance, and its ability to maintain sealing along with assay.
The procedure was started with the “Startup procedure” protocol that validates chip contact and adjusts offset, then after the system was ready, 5 μl of cells suspended in extracellular buffer was added and the intermediate protocol was automatically launched.
When a cell was trapped by vacuum, the value “v-membrane” was raised by 100%, then 15 μl of sealing solution was added. The procedure continued automatically through all its steps until the final step “maintain the whole-cell”. At this step, the sealing solution was washed using three 20 μl washes with an external buffer, and the values C-fast and C-slow were adjusted twice using the “Auto E” buttons.
The sensitivity of reading was adjusted by changing the gain from 2.0 to 0.5.
To initiate recording, the “Ramp” protocol was initiated, and currents were recorded for several minutes until the signal remained stable for both inward and outward currents.
For TRPV3-mu transfected nHEK cells, a similar procedure was used, but with “Fragile protocol”, and the addition of the antagonist at the step of sealing.
Nanion's system automatically maintained cells in the holding potential of −40 mV. Then the voltage was ramped from […] for 160 ms. Finally, the voltage was stepped back to the holding potential (−40 mV). This voltage command protocol was repeated in cycles of 400 ms (FIG. 1).
The solution was then gently mixed and current recording resumed.
Within each cellular recording, the percent of control values were calculated for each test compound concentration-current response based on peak current in the presence of the agonist and full response.
Target sequence in this assay (Q8NET8 whole entry, looked up): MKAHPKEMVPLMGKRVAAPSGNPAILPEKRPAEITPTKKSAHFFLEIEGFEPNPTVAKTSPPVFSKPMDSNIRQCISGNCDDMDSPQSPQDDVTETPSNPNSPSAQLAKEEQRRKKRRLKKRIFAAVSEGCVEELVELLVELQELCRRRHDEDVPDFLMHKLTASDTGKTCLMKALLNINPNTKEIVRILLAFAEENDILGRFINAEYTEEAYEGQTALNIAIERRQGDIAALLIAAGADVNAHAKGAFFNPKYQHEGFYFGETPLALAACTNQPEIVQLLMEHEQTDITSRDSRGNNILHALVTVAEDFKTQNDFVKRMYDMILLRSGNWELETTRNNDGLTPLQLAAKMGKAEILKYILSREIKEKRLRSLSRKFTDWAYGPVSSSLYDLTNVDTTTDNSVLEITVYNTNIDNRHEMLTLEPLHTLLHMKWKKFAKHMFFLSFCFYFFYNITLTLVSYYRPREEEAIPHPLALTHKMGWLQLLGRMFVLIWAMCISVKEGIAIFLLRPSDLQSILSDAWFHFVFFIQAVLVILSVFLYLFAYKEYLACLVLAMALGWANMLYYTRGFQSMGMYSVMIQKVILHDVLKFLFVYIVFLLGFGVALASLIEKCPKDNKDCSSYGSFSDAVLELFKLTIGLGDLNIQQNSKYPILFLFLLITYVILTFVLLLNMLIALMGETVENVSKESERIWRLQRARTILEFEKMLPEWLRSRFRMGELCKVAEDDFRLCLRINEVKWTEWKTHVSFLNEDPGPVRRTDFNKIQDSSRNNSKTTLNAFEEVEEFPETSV

[2] = molecular target: rat (r) TRPV3 (Rattus norvegicus, UniProt E9PU00); assay: Whole-cell patch clamp, rTRPV3 Phase 1 / Phase 2 currents; assay type: cell-based
Chain of rat (r) TRPV3 (E9PU00 1-791): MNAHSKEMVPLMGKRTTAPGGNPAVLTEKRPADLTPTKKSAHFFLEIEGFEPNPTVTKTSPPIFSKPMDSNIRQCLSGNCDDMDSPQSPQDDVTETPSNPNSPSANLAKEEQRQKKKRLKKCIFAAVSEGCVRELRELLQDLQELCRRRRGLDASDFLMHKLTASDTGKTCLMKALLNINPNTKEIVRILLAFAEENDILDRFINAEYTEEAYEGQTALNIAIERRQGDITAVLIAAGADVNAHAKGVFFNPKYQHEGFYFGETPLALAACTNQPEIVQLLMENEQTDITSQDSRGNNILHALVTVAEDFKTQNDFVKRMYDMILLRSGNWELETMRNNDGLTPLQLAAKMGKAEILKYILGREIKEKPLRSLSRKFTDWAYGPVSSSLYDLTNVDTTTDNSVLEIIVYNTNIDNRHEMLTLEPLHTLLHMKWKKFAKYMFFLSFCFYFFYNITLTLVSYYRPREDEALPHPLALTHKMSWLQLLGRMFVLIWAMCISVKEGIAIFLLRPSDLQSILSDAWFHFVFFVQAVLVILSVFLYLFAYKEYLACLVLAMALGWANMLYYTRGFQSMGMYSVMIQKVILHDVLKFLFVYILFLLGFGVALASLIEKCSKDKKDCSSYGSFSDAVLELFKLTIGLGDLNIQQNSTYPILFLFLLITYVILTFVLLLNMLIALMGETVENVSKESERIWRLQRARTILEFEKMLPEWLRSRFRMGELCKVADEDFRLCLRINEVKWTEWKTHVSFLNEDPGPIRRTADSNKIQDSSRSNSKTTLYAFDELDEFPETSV
From the text: Whole-cell patch clamp experiments permit the detection of currents through the TRPV3 channel in the cell line described above. A glass electrode is brought into contact with a single cell and the membrane is then ruptured, permitting control of the voltage of the cell membrane and measurement of currents flowing across the membrane using the amplifier attached to the electrode. A perfusion system permits control of the extracellular solution, including the addition of blockers and activators of the current. The current can be activated by heating this solution to 28° C. or warmer or by addition of 20 μM 2-APB to the solution.
TRPV3 cells were induced 20-48 hours, removed from growth plates, and replated at low density (to attain good single-cell physical separation) on glass coverslips for measurement. In some cases, cells were grown in low density overnight on glass coverslips. Patch clamp recordings were made in the whole-cell mode with a holding potential of −40 mV. Every 5 seconds, a voltage ramp was applied from −120 to +100 mV, 400 ms in duration. Currents elicited were quantified at −80 mV and +80 mV. The internal solution consisted of 140 mM cesium aspartate, 10 mM EGTA, 2.27 mM MgCl2, 1.91 mM CaCl2) and 10 mM HEPES, pH to 7.2 with KOH; with 50 nM calculated free […]. External solution was Ringer's solution described above. Upon addition of 2-APB or upon heating of the extraceullar solution as described above, TRPV3 current was induced only in TRPV3-expressing cells and not in parental HEK293 TREx cells. […] Removal of the stimulus caused most of the current to go away, and inhibitor addition could still inhibit this current.
In Tables 3 and 4, Phase 1 refers to Phase 1 current for human (h) TRPV3 or rat (r) TRPV3, and Phase 2 refers to Phase 2 current for human (h) TRPV3 or rat (r) TRPV3. The hTRPV3 and rTRPV3 assays were performed as described herein. hERG refers to the inhibition the human ERG (hERG) channel. NaV1.5, refers to the pore forming aL-subunit of the voltage-dependent cardiac Na(+) channel and is an integral membrane protein involved in the initiation and conduction of action potentials. hTRPV3 HAMA IC50 refers to the IC50 of TRPV3 cells stably expressed in TRex-293 cells. Solubility Ringer refers to the compounds' solubility in Ringer's solution. LM T1/2 refers to liver microsome half-lives in either rat or human liver microsomes. FLIPR IC50 refers to the IC50 of the test compounds against recombinant hTRPV3 cells.

[3] = molecular target: T1, hTRPV3; assay: hTRPV3 HAMA IC50 assay (Hamamatsu FDSS6000 calcium flux, TRex-293 cells); settings: 5 min
Target sequence in this assay (Q8NET8 whole entry): as the sequence (Q8NET8 whole entry, looked up) above
Protocol: IC50s were calculated using CBIS from ChemInnovation (San Diego).

[4] = molecular target: T1, hTRPV3; assay: Whole-cell patch clamp, hTRPV3 Phase 1 / Phase 2 currents; assay type: cell-based
Outline: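 Whole-cell recordings on induced TRPV3 cells replated on coverslips, held at −40 mV with 400 ms ramps from −120 to +100 mV every 5 s; currents read at −80 and +80 mV. Ringer's external solution; current activated by heating to ≥28 °C or 20 μM 2-APB.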
Target sequence in this assay (Q8NET8 whole entry): as the sequence (Q8NET8 whole entry, looked up) above

[5] = Metabolic Stability assay, rat liver microsomes; assay type: in vitro ADME; settings: read-out: LM T1/2 (min) (rat)
Outline: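 Test article at 1 μM starting concentration incubated with human or rat liver microsomes at 37 °C, with the reaction started by NADPH regeneration components. Aliquots were quenched in cold acetonitrile/MeOH/H2O at 0, 7, 15, 30 and 60 min and analysed by HPLC/MS/MS.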

[6] = Aqueous solubility assay in Normal Ringer Solution
Protocol: Following vortex and incubation for a sufficient time (e.g. 40 minutes at room temperature), solutions were filtered, quenched with acetonitrile, and analyzed by Liquid Chromotography. Solubility Limits were determined by comparison to a standard curve.

[7] = Phase 1 current, read-out: rTRPV3 (nM) (Phase 1)
[8] = Phase 2 current, read-out: rTRPV3 (nM) (Phase 2)
[9] = Phase 1 current, inward, whole-cell patch clamp, read-out: hTRPV3 Patch P1 Inwd
[10] = Phase 1 current, read-out: hTRPV3 (nM) (Phase 1)

CC(C)c1ccccc1-c1ccc([C@H]2CCN(C(=O)c3ccc(F)cn3)C2)c(CO)c1 (stereo in doubt) [KM-002-E1, (5-Fluoro-pyridin-2-yl)-[3-(3-hydroxymethyl-2′-isopropyl-biphenyl-4-yl)-pyrrolidin-1-yl]-methanone]
IC50 [1]: < 10 nM

Cc1nc(C(=O)N2CC[C@H](c3ccc(-c4ccccc4C4CC4)cc3CO)C2)ccc1O (stereo in doubt) [KM-023-E1, [3-(2′-Cyclopropyl-3-hydroxymethyl-biphenyl-4-yl)-pyrrolidin-1-yl]-(5-hydroxy-6-methyl-pyridin-2-yl)-methanone]
IC50 [1]: < 10 nM

COc1cncc(C(=O)N2CC[C@H](c3ccc(-c4ccccc4C4CC4)cc3CO)C2)n1 (stereo in doubt) [KM-031-E1, [3-(2′-Cyclopropyl-3-hydroxymethyl-biphenyl-4-yl)-pyrrolidin-1-yl]-(6-methoxy-pyrazin-2-yl)-methanone]
IC50 [1]: 10 to 100 nM

Cc1cncc(C(=O)N2CC[C@H](c3ccc(-c4ccccc4C4CC4)cc3CO)C2)n1 (stereo in doubt) [KM-032-E1, [3-(2′-Cyclopropyl-3-hydroxymethyl-biphenyl-4-yl)-pyrrolidin-1-yl]-(6-methyl-pyrazin-2-yl)-methanone]
IC50 [1]: 10 to 100 nM

COCc1cccc(C(=O)N2CC[C@H](c3ccc(-c4ccccc4C4CC4)cc3CO)C2)n1 (stereo in doubt) [KM-036-E1, [3-(2′-Cyclopropyl-3-hydroxymethyl-biphenyl-4-yl)-pyrrolidin-1-yl]-(6-methoxymethyl-pyridin-2-yl)-methanone]
IC50 [1]: 10 to 100 nM

CNc1cncc(C(=O)N2CC[C@H](c3ccc(-c4ccccc4C4CC4)cc3CO)C2)n1 (stereo in doubt) [KM-054-E1, [3-(2′-Cyclopropyl-3-hydroxymethyl-biphenyl-4-yl)-pyrrolidin-1-yl]-(6-methylamino-pyrazin-2-yl)-methanone]
IC50 [1]: < 10 nM

NC(=O)c1cc(-c2ccccc2)ccc1N1CC[C@@H](Oc2ccc(C(F)(F)F)cn2)C1 [Compound 1-33, (R)-4-(3-(5-(trifluoromethyl)pyridin-2-yloxy)pyrrolidin-1-yl)biphenyl-3-carboxamide]
IC50 [2, 7]: 283 nM
IC50 [2, 8]: 776 nM
hTRPV3 HAMA IC50 (nM) (5 min) [3]: no fit (5 min)
IC50 [4, 9]: 100 to 1000 nM
IC50 [4, 10]: 139 nM

NC(=O)c1cc(-c2ccc(F)cc2)ccc1N1CC[C@H](Oc2ccc(C(F)(F)F)cn2)C1 [Compound 1-65, (S)-4′-fluoro-4-(3-(5-(trifluoromethyl)pyridin-2-yloxy)pyrrolidin-1-yl)biphenyl-3-carboxamide]
IC50 [2, 7]: 1140 nM
IC50 [2, 8]: 3250 nM
hTRPV3 HAMA IC50 (nM) (5 min) [3]: no fit (5 min)
half-life at 1 μM [5]: 77.3 min
Solubility Ringer (nM) ([6]; Normal Ringer Solution, room temperature): BLQ
IC50 [4, 9]: 100 to 1000 nM
IC50 [4, 10]: 475 nM
IC50 ([4]; Phase 2 current, inward, whole-cell patch clamp, read-out: hTRPV3 Patch P2 Inwd): 100 to 1000 nM
IC50 ([4]; Phase 2 current, read-out: hTRPV3 (nM) (Phase 2)): 417 nM

OCc1cc(C(O)c2ccccc2Cl)ccc1N1CC[C@H](Oc2ncccc2Cl)C1 (stereo partly drawn) [Compound 1-262, (2-chlorophenyl)(4-((S)-3-(3-chloropyridin-2-yloxy)pyrrolidin-1-yl)-3-(hydroxymethyl)phenyl)methanol]
IC50 [2, 7]: ~20 nM
IC50 [2, 8]: 21.3 nM
half-life at 1 μM [5]: 14.6 min
solubility at 40 min ([6]; saline or isotonic, kinetic from dmso stock): ~4.7 µM (≈ 2.09 µg/mL)
IC50 [4, 9]: 10 to 100 nM
IC50 [4, 10]: 23.7 nM

CC(C)c1ccccc1-c1ccc([C@@H]2CCN(C(=O)c3ccc(F)cn3)C2)c(CO)c1 [KM-002-E2]
IC50 [1]: 10 to 100 nM

COCc1cccc(C(=O)N2CCC(c3ccc(-c4ccccc4C4CC4)cc3CO)C2)n1 (stereo not drawn) [KM-036]
IC50 [1]: 10 to 100 nM

CNc1cncc(C(=O)N2CCC(c3ccc(-c4ccccc4C(C)C)cc3CO)C2)n1 (stereo not drawn) [KM-069, [3-(3-Hydroxymethyl-2′-isopropyl-biphenyl-4-yl)-pyrrolidin-1-yl]-(6-methylamino-pyrazin-2-yl)-methanone]
IC50 [1]: 10 to 100 nM

COCc1cncc(C(=O)N2CCC(c3ccc(-c4ccccc4C4CC4)cc3CO)C2)n1 (stereo not drawn) [KM-070, [3-(2′-Cyclopropyl-3-hydroxymethyl-biphenyl-4-yl)-pyrrolidin-1-yl]-(6-methoxymethyl-pyrazin-2-yl)-methanone]
IC50 [1]: 10 to 100 nM

COc1cncc(C(=O)N2CCC(c3ccc(-c4cccc5c4CCC5)cc3CO)C2)n1 (stereo not drawn) [KM-071, [3-(2-Hydroxymethyl-4-indan-4-yl-phenyl)-pyrrolidin-1-yl]-(6-methoxy-pyrazin-2-yl)-methanone]
IC50 [1]: 10 to 100 nM

Cc1nc(C(=O)N2CCC(c3ccc(-c4ccc(F)cc4C4CC4)cc3CO)C2)ccc1O (stereo not drawn) [KM-084]
IC50 [1]: 10 to 100 nM

Cc1nc(C(=O)N2CCC(c3ccc(-c4cc(F)ccc4C4CC4)cc3CO)C2)ccc1O (stereo not drawn) [KM-085]
IC50 [1]: < 10 nM
